Tests used:
Test in all cases: KINOMEscan
Assay type in all cases: binding
Conditions in all cases: read-out: % Ctrl
[1] = target: T1, GRK1 (Homo sapiens, UniProt Q15835)
T1 construct: purchased DiscoveRx KINOMEscan
How it was run: (§1)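 Competition binding panel of 442 non-mutant kinases: test compound at 5 and 10 μM competed with an active-site-directed ligand for 1 h with shaking. Bound kinase was eluted with 0.5 μM ligand and quantified by qPCR; %Ctrl = (compound − positive control)/(DMSO − positive control) × 100, lower meaning tighter binding.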

[2] = target: T2, FGFR3 (Homo sapiens, UniProt P22607)
T2 construct: purchased DiscoveRx KINOMEscan
How it was run: as §1

[3] = target: T3, JAK1(JH2domain-pseudokinase) (Homo sapiens, UniProt P23458)
T3 construct: JAK1(JH2domain-pseudokinase); purchased DiscoveRx KINOMEscan
T3 sequence (P23458 561-860 limits assumed): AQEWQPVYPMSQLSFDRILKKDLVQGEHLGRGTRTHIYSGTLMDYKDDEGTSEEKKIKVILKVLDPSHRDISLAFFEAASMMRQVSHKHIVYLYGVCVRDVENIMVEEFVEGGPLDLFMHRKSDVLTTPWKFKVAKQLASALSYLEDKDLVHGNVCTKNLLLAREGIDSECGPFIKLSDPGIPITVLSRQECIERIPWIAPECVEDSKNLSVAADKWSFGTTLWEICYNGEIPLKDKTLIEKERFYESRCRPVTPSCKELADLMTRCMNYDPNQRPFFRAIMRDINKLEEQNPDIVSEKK
How it was run: as §1

[4] = target: T4, KIT(V559D,T670I) (Homo sapiens, UniProt P10721, T670I/V559D)
T4 construct: purchased DiscoveRx KINOMEscan

[5] = target: T5, AXL (Homo sapiens, UniProt P30530)
T5 construct: purchased DiscoveRx KINOMEscan
How it was run: as §1

[6] = target: T6, CLK2 (Homo sapiens, UniProt P49760)
T6 construct: purchased DiscoveRx KINOMEscan
How it was run: as §1

[7] = target: T7, MARK4 (Homo sapiens, UniProt Q96L34)
T7 construct: purchased DiscoveRx KINOMEscan
How it was run: as §1

[8] = target: T8, CSNK1A1L (Homo sapiens, UniProt Q8N752)
T8 construct: purchased DiscoveRx KINOMEscan
How it was run: as §1

[9] = target: T9, JAK3(JH1domain-catalytic) (Homo sapiens, UniProt P52333)
T9 construct: JAK3(JH1domain-catalytic); purchased DiscoveRx KINOMEscan
T9 sequence (P52333 813-1124 limits assumed): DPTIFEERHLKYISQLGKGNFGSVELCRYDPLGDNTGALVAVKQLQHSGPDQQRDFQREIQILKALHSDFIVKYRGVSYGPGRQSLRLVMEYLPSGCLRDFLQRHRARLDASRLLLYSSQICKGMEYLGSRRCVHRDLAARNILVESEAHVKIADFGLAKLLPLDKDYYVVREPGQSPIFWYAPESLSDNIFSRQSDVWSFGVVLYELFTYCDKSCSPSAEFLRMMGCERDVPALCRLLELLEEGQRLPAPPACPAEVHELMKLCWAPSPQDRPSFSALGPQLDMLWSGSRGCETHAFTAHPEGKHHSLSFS
How it was run: as §1

[10] = target: T10, BIKE (Homo sapiens, UniProt Q9NSY1)
T10 construct: purchased DiscoveRx KINOMEscan
How it was run: as §1

[11] = target: T11, RSK1(Kin.Dom.2-C-terminal) (Homo sapiens, UniProt Q15418)
T11 construct: RSK1(Kin.Dom.2-C-terminal); purchased DiscoveRx KINOMEscan
T11 sequence (Q15418 392-735 limits assumed): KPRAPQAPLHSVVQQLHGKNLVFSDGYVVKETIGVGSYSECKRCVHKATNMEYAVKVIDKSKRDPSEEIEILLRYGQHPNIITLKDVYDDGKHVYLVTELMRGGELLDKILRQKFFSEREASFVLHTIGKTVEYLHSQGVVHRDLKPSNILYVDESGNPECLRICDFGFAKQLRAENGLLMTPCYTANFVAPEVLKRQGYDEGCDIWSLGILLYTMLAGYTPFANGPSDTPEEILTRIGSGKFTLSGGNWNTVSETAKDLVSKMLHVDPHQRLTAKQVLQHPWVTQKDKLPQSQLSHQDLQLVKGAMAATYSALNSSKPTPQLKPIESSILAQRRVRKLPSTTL
How it was run: as §1

[12] = target: T12, HCK (Homo sapiens, UniProt P08631)
T12 construct: purchased DiscoveRx KINOMEscan
How it was run: as §1

[13] = target: T13, ERK4 (Homo sapiens, UniProt P31152)
T13 construct: purchased DiscoveRx KINOMEscan
How it was run: as §1

[14] = target: T14, NEK9 (Homo sapiens, UniProt Q8TD19)
T14 construct: purchased DiscoveRx KINOMEscan
T14 sequence (Q8TD19 whole entry): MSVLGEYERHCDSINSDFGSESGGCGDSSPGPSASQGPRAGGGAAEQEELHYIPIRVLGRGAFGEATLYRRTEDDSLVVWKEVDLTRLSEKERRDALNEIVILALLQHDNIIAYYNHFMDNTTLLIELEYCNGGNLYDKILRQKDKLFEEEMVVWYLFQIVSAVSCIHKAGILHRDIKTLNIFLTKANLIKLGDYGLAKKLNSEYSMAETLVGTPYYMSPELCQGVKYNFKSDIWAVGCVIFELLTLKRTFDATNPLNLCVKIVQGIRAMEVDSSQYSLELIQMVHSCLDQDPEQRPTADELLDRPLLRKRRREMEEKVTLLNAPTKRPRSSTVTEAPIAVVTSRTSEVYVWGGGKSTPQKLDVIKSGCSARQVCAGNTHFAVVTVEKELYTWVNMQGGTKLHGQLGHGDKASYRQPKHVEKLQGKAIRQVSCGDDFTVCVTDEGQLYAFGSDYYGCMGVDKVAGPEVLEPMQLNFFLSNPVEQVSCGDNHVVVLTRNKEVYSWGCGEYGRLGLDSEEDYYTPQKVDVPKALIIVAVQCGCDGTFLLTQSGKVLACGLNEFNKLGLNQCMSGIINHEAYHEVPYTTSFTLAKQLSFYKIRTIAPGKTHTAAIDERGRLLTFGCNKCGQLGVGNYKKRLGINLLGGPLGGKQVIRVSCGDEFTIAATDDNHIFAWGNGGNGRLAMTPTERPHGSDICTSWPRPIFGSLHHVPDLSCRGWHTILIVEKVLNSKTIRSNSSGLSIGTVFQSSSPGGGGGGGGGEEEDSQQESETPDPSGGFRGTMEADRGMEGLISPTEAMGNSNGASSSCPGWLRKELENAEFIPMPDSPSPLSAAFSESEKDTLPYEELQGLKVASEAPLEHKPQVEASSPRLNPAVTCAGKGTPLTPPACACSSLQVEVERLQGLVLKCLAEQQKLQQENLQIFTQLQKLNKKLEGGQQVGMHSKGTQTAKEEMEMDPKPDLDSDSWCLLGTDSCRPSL
How it was run: as §1

[15] = target: T15, RIPK4 (Homo sapiens, UniProt P57078)
T15 construct: purchased DiscoveRx KINOMEscan
T15 sequence (P57078 whole entry): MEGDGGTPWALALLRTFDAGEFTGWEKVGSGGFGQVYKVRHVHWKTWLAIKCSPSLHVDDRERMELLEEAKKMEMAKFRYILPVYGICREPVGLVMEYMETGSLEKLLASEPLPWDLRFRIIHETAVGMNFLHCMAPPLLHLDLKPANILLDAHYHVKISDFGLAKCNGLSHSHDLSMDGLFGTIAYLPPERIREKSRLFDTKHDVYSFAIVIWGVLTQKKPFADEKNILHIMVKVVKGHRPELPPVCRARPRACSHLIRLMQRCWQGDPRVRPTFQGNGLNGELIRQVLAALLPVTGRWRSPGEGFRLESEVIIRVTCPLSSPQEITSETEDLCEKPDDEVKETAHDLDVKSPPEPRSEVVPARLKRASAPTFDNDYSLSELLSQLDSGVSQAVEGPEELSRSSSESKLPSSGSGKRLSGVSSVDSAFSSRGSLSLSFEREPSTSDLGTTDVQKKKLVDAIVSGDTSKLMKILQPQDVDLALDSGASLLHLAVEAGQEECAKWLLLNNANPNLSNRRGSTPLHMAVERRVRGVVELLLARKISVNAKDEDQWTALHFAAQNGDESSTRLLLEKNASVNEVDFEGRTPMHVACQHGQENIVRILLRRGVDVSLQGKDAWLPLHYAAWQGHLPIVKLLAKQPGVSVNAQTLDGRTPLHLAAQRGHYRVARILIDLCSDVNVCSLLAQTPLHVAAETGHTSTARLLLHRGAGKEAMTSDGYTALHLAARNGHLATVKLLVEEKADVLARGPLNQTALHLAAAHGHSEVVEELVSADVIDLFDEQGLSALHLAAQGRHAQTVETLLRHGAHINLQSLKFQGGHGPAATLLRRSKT
How it was run: as §1

[16] = target: T16, ULK1 (Homo sapiens, UniProt O75385)
T16 construct: purchased DiscoveRx KINOMEscan
How it was run: as §1

[17] = target: T17, ABL1(T315I)-phosphorylated (Homo sapiens, UniProt P00519, T315I)
T17 construct: purchased DiscoveRx KINOMEscan

[18] = target: T18, HUNK (Homo sapiens, UniProt P57058)
T18 construct: purchased DiscoveRx KINOMEscan
How it was run: as §1

[19] = target: T19, TNIK (Homo sapiens, UniProt Q9UKE5)
T19 construct: purchased DiscoveRx KINOMEscan
How it was run: as §1

[20] = target: T20, PRP4 (Homo sapiens, UniProt Q13523)
T20 construct: purchased DiscoveRx KINOMEscan
T20 sequence (Q13523 whole entry): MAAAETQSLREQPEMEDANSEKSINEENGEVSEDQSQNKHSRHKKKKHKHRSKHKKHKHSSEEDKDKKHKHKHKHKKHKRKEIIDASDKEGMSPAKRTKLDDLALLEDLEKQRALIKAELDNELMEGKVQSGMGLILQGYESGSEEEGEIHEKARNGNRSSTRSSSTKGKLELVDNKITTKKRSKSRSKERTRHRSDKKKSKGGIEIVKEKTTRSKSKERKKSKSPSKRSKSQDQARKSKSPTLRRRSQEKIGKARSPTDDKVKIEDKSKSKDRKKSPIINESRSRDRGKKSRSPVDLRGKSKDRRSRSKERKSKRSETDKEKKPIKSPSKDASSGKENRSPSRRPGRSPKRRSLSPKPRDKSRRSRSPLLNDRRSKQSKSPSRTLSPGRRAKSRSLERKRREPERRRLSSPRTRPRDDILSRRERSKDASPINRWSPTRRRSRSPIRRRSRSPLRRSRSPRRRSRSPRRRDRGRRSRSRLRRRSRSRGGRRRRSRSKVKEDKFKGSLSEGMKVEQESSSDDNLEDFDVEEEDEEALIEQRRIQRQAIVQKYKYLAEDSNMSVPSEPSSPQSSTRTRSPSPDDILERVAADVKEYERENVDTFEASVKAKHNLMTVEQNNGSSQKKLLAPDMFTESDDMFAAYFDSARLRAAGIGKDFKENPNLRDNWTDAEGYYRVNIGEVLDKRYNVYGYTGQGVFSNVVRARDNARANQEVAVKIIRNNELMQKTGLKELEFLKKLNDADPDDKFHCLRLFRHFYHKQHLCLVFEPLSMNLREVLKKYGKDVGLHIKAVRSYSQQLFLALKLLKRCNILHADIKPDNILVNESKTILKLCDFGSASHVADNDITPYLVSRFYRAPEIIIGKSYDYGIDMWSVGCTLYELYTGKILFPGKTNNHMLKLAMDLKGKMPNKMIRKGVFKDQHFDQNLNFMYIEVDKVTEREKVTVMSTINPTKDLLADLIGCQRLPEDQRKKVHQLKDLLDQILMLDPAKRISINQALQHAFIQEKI
How it was run: as §1

[21] = target: T21, MRCKA (Homo sapiens, UniProt Q5VT25)
T21 construct: purchased DiscoveRx KINOMEscan
How it was run: as §1

[22] = target: T22, MLK3 (Homo sapiens, UniProt Q16584)
T22 construct: purchased DiscoveRx KINOMEscan
How it was run: as §1

[23] = target: T23, ACVR2B (Homo sapiens, UniProt Q13705)
T23 construct: purchased DiscoveRx KINOMEscan
How it was run: as §1

[24] = target: T24, PLK3 (Homo sapiens, UniProt Q9H4B4)
T24 construct: purchased DiscoveRx KINOMEscan
T24 sequence (Q9H4B4 whole entry): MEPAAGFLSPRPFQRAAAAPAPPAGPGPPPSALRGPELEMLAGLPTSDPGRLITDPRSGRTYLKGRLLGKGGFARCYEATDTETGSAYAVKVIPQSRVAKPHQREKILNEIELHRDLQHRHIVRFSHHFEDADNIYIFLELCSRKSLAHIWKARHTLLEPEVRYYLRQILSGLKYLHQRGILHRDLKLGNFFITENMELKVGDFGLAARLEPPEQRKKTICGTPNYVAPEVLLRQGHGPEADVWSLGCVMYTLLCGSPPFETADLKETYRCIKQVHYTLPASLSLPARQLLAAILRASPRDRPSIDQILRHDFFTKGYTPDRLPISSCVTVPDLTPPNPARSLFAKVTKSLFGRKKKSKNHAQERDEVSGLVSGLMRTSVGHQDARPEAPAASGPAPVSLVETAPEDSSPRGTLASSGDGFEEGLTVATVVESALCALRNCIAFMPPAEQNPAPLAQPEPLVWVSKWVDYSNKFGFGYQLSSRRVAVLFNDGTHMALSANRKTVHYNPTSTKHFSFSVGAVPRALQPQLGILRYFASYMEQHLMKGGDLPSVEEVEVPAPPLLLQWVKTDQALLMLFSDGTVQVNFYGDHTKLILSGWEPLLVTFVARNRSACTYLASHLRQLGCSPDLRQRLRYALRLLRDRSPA
How it was run: as §1

[25] = target: T25, RPS6KA4(Kin.Dom.1-N-terminal) (Homo sapiens, UniProt O75676)
T25 construct: RPS6KA4(Kin.Dom.1-N-terminal); purchased DiscoveRx KINOMEscan
How it was run: as §1

[26] = target: T26, GAK (Homo sapiens, UniProt O14976)
T26 construct: purchased DiscoveRx KINOMEscan
How it was run: as §1

[27] = target: T27, PRKD1 (Homo sapiens, UniProt Q15139)
T27 construct: purchased DiscoveRx KINOMEscan
How it was run: as §1

[28] = target: T28, NEK7 (Homo sapiens, UniProt Q8TDX7)
T28 construct: purchased DiscoveRx KINOMEscan
How it was run: as §1

T1 sequence (Q15835 whole entry): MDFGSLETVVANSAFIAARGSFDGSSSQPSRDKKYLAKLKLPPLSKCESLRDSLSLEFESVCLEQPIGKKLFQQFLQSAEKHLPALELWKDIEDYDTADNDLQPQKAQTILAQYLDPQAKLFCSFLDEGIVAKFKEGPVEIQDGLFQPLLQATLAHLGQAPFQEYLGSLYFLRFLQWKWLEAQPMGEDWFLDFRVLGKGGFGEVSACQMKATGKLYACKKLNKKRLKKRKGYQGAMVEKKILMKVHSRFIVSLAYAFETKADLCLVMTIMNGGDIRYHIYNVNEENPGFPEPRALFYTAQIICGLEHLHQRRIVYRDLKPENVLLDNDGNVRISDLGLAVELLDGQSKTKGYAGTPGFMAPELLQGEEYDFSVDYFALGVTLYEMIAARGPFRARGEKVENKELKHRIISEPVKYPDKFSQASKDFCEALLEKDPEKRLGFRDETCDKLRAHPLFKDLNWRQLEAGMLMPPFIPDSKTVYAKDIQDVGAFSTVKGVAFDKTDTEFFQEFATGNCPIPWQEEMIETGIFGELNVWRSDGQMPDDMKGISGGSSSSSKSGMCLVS

Cc1ccc(C2=Nc3cccnc3S(=O)(=O)c3ccccc32)cc1 [TBPT, 6-(p-tolyl)benzo[f] pyrido[2,3-b][1,4] thiazepine 11,11-dioxide]
remaining binding at 5 µM ([1]; 5 μM): 100% | remaining binding at 10 µM ([1]; 10 μM): 100% | remaining binding at 5 µM ([2]; 5 μM): 89% | remaining binding at 10 µM ([2]; 10 μM): 100% | remaining binding at 5 µM ([3]; 5 μM): 100% | remaining binding at 10 µM ([3]; 10 μM): 100% | remaining binding at 5 µM ([4]; 5 μM): 94% | remaining binding at 10 µM ([4]; 10 μM): 100% | remaining binding at 5 µM ([5]; 5 μM): 98% | remaining binding at 10 µM ([5]; 10 μM): 100% | remaining binding at 5 µM ([6]; 5 μM): 100% | remaining binding at 10 µM ([6]; 10 μM): 100% | remaining binding at 5 µM ([7]; 5 μM): 81% | remaining binding at 10 µM ([7]; 10 μM): 100% | remaining binding at 5 µM ([8]; 5 μM): 100% | remaining binding at 10 µM ([8]; 10 μM): 91% | remaining binding at 5 µM ([9]; 5 μM): 100% | remaining binding at 10 µM ([9]; 10 μM): 100% | remaining binding at 5 µM ([10]; 5 μM): 87% | remaining binding at 10 µM ([10]; 10 μM): 93% | remaining binding at 5 µM ([11]; 5 μM): 100% | remaining binding at 10 µM ([11]; 10 μM): 98% | remaining binding at 5 µM ([12]; 5 μM): 93% | remaining binding at 10 µM ([12]; 10 μM): 100% | remaining binding at 5 µM ([13]; 5 μM): 89% | remaining binding at 10 µM ([13]; 10 μM): 100% | remaining binding at 5 µM ([14]; 5 μM): 100% | remaining binding at 10 µM ([14]; 10 μM): 88% | remaining binding at 5 µM ([15]; 5 μM): 100% | remaining binding at 10 µM ([15]; 10 μM): 100% | remaining binding at 5 µM ([16]; 5 μM): 100% | remaining binding at 10 µM ([16]; 10 μM): 83% | remaining binding at 5 µM ([17]; 5 μM): 100% | remaining binding at 10 µM ([17]; 10 μM): 100% | remaining binding at 5 µM ([18]; 5 μM): 89% | remaining binding at 10 µM ([18]; 10 μM): 84% | remaining binding at 5 µM ([19]; 5 μM): 84% | remaining binding at 10 µM ([19]; 10 μM): 97% | remaining binding at 5 µM ([20]; 5 μM): 99% | remaining binding at 10 µM ([20]; 10 μM): 100% | remaining binding at 5 µM ([21]; 5 μM): 89% | remaining binding at 10 µM ([21]; 10 μM): 99% | remaining binding at 5 µM ([22]; 5 μM): 87% | remaining binding at 10 µM ([22]; 10 μM): 100% | remaining binding at 5 µM ([23]; 5 μM): 87% | remaining binding at 10 µM ([23]; 10 μM): 82% | remaining binding at 5 µM ([24]; 5 μM): 95% | remaining binding at 10 µM ([24]; 10 μM): 75% | remaining binding at 5 µM ([25]; 5 μM): 75% | remaining binding at 10 µM ([25]; 10 μM): 100% | remaining binding at 5 µM ([26]; 5 μM): 100% | remaining binding at 10 µM ([26]; 10 μM): 90% | remaining binding at 5 µM ([27]; 5 μM): 100% | remaining binding at 10 µM ([27]; 10 μM): 78% | remaining binding at 5 µM ([28]; 5 μM): 100% | remaining binding at 10 µM ([28]; 10 μM): 89%
